“Also recorded” adds a separate entry of the source.
How the values were obtained:
β-catenin [1] = experiment: Cytosolic β-catenin accumulation in murine DCs (cell fractionation, Western blot); format: cell-based; conditions: murine immature DCs, different doses
Description: BMDCs were treated with either LPS or different doses of SB216763. CD11c^+ DCs were then fractionated into membrane and cytosolic fractions, followed by immunoblotting with antibodies against β-catenin (top) and E-cadherin (middle). Akt was probed as a loading control (bottom).
SB 216763 was purchased from Tocris Cookson Inc. (Ellisville, Mo.). […] Cell Culture and purification of DC, OT-I and OT-II T cells Mouse DM-derived CD11c^+ DCs were isolated using anti-CD11c-conjugated beads and columns (Miltenyi Biotech) according to the manufacturer's protocol. The resulted CD11c^+ DCs were then resuspended in the same culture media at 5-10×10^5 cells/ml; these cells were in single cell suspension and thus referred as cluster-disrupted cells. […] Cell fractionation, Immunoprecipitation and Western blotting Cells were homogenized in hypotonic buffer (10 mM HEPES-KOH pH 7.4, 1.5 mM MgCl2, 10 mM KCl, 0.5 mM DTT) with proteinase and phosphatase inhibitors by passing through 30 gauge needles for 10 times. Postnuclear fractions were centrifuged at 45,000 rpm for 45 min to separate membrane and cytosol fractions. Total cell lysates were obtained with 1% NP-40 lysis buffer (1% Nonidet P-40, 150 mM NaCl, 20 mM Tris, and ImM EDTA (pH 7.5)) supplemented with proteinase and phosphatase inhibitors.

β-catenin [2] = experiment: Cytosolic β-catenin accumulation in human DCs (cell fractionation, Western blot); format: cell-based; conditions: human DCs (not shown)
CD11c+ DCs = experiment: DC maturation of murine BMDCs, CD86 expression by FACS; format: cell-based, mouse
Description: BMDCs were prepared as described and CD11c^+ DCs were purified at day 6 and replated at 5×10^5 cells/ml.
CD11c^+ DCs after different stimuli were subject to FACS analysis.
SB 216763 was purchased from Tocris Cookson Inc. (Ellisville, Mo.). […] Flow Cytometry Assays Cells were stained for 30 min on ice with primary antibody and if necessary secondary antibody, washed, and then evaluated on a FACSCalibur™ (Becton Dickinson). […] Cell Culture and purification of DC, OT-I and OT-II T cells Mouse DM-derived CD11c^+ DCs were isolated using anti-CD11c-conjugated beads and columns (Miltenyi Biotech) according to the manufacturer's protocol. The resulted CD11c^+ DCs were then resuspended in the same culture media at 5-10×10^5 cells/ml; these cells were in single cell suspension and thus referred as cluster-disrupted cells.

DCs [3] = experiment: MHC class II redistribution in DCs by immunofluorescence; format: cell-based; conditions: immunofluorescence (not shown)
DCs [4] = experiment: Cytokine and chemokine production by treated DCs; format: cell-based
Excerpt: The ability of the GSK3β inhibitor SB216763 to induce maturation was particularly striking. While it is possible this effect was limited to the dramatic increase in free β-catenin, GSK3β also has other targets. For example, by inhibiting GSK3β-mediated phosphorylation of NF-AT, this transcriptional activator would be more readily translocated into the nucleus, possibly synergyzing with β-catenin (Crabtree and Olson, 2002). Other potential mediators (eg Hedgehog, p53, c-myc) might also be affected (Doble and Woodgett, 2003). […] Cytokine and chemokine multiplex analysis The levels of cytokines and chemokines were measured with Luminex suspension array technology. Supernatants were collected and frozen at −80° C. For human CD34^+-derived DCs, cell culture supernatants were then analyzed using the Beadlyte cytokine assay kit (Upstate) with manufacturer's protocol. For mouse cytokines, supernatants were analyzed using the Bio-Plex cytokine assay kit and supporting reagents (BioRad) following manufacturer's procedures.

active β-catenin = experiment: Active β-catenin by sequential immunoprecipitation and immunoblotting in BMDCs; format: cell-based; conditions: bone marrow-derived DC cultures
Excerpt: Bone marrow-derived DC cultures were either treated with LPS, SB216763 or cluster disruption (CD). CD11c^+ cells were purified and same number of cells were used to make cell lysates as described. Cell lysates were then subject to sequential immunoprecipitation with antibodies against E-cadherin and β-catenin, followed by immunoblotting with antibodies against E-cadherin (top), active β-catenin (middle) and total β-catenin (bottom).
BMDCs were either treated with LPS or CD and cell lysates from CD11c^+ DCs were subject to sequential immunoprecipitation with antibodies against E-cadherin and β-catenin, followed by immunoblotting with antibodies against E-cadherin (top), active β-catenin (middle) and total β-catenin (bottom).
Reagents and Antibodies Rat anti-E-cadherin, mouse anti-β-catenin, mouse anti-p120 catenin were purchased from BD Transduction Laboratories (Lexington, Calif.). Both mouse anti-E-cadherin (HECD-1 and SHE78-7) and rat anti-E-cadherin (ECCD-1 and 2) monoclonal antibodies were obtained from Zymed (San Francisco, Calif.). Rat monoclonal anti-E-cadherin and rabbit polyclonal β-catenin were obtained from Sigma-Aldrich. […] Flow Cytometry Assays Cells were stained for 30 min on ice with primary antibody and if necessary secondary antibody, washed, and then evaluated on a FACSCalibur™ (Becton Dickinson). […]

GSK3β = GSK3β (Homo sapiens, UniProt P49841); conditions: cited from earlier work
Sequence of GSK3β (P49841 whole entry, species assumed): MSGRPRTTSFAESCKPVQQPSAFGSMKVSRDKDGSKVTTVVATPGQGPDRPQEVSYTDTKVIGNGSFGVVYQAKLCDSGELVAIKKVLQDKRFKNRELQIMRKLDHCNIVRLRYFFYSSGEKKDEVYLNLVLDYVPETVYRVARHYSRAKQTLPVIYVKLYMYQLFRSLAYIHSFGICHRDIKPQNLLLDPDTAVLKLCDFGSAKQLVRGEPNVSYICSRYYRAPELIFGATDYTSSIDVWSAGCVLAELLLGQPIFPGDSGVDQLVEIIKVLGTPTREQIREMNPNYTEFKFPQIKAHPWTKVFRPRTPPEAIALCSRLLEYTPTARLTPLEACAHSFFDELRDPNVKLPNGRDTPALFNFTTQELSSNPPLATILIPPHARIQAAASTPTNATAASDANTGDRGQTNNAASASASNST

For Cn1cc(C2=C(c3ccc(Cl)cc3Cl)C(=O)NC2=O)c2ccccc21 [SB216763], the “accumulation of β-catenin in the cytosol” value (β-catenin [1]) was “dose-dependent accumulation of β-catenin in the cytosol; also recorded: Dose-dependent accumulation of cytosolic β-catenin”, the “accumulation of β-catenin in the cytosol” value (β-catenin [2]) was “dose-dependent accumulation of β-catenin in the cytosol” and the “effectiveness at triggering DC maturation compared with LPS and cluster disruption (CD)” value (CD11c+ DCs; 10 μM) was “nearly as effective as LPS at triggering DC maturation, and slightly more effective than CD”. For the same molecule, the “mature population (percentage of cells expressing high CD86)” value (CD11c+ DCs; added to immature DCs, different doses) was “increased in a dose-dependent manner; also recorded: results in DC maturation”, the “mature DC phenotype, MHC class II distribution” value (DCs [3]) was “MHC class II molecules redistributing from lysosomes to the plasma membrane” and the “production of inflammatory cytokines” value (DCs [4]) was “failed to induce the production of inflammatory cytokines”. For the same molecule, the “formation of chemokines (eg IP10, MCP-1, MIP-α, CXCL8)” value (DCs [4]; compared with cluster disruption) was “induced the formation of the same array of chemokines as did CD”, the “activation of β-catenin (active, non-phosphorylated β-catenin)” value (active β-catenin) was “Resulted in Activation of β-Catenin” and the “selectivity as GSK3β inhibitor” value (GSK3β) was “selective inhibitor of GSK3β”.

— patent publication US20090306045A1, “Inhibition of Glycogen Synthase Kinase and Methods of Treating Autoimmune or Immune Inflammatory Disease” (priority 2005, published 2009)
